Results published in the supplement of paper PMC11997997.

What was measured:
[1] = test system: murine bone marrow-derived macrophages; experiment: area under cytotoxicity dose-response curve (AUC (% cytotoxicity x dose, relative)); higher = more cytotoxic; conditions: duration: 6 days; dose range: 0.13-80 uM, 8 points
Summary of the method: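 Values are the area under the cytotoxicity dose–response curve, calculated with GraphPad Prism version 10. Primary murine bone marrow-derived macrophages were exposed to final concentrations of 80–0.13 μM for 6 days, and viability was read by CellTiter-Glo luminescence with normalisation to vehicle and positive control wells.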

[2] = test system: Mycobacterium tuberculosis CDC1551 (intracellular, in murine BMDM); experiment: area under intracellular growth-inhibition dose-response curve (AUC (% inhibition x dose, relative)); higher = more potent; conditions: duration: 6 days; dose range: 0.13-80 uM, 8 points
Summary of the method: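 The value is the area under the growth-inhibition dose–response curve, calculated in GraphPad Prism. Primary murine bone marrow-derived macrophages were seeded in 384-well opaque plates and, 24 h later, infected for 1 h with luciferase-expressing M. tuberculosis CDC1551 at multiplicity of infection 1. Cells were then exposed for 6 days to an 8-dose, 2.5-fold series (final 80–0.13 μM). Growth was read with the Bright-Glo luciferin assay and normalised to a reference drug control and to the lowest-concentration wells.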

## O=C(Nc1ccc(OC(F)(F)F)cc1)c1ccc2c(c1)no[n+]2[O-]
[1]
  area under cytotoxicity dose-response curve: < 0
[2]
  area under intracellular growth-inhibition dose-response curve: 230

## COc1ccc(/C=N/NC(N)=S)cc1
[1]
  area under cytotoxicity dose-response curve: 4.45
[2]
  area under intracellular growth-inhibition dose-response curve: 258

## CCOc1c2c(nc3ccc(Cl)cc13)CCC2
[1]
  area under cytotoxicity dose-response curve: 57.1
[2]
  area under intracellular growth-inhibition dose-response curve: 157

## O=C(COc1ccccc1)N/N=C/c1ccc([N+](=O)[O-])o1
[1]
  area under cytotoxicity dose-response curve: 14.3
[2]
  area under intracellular growth-inhibition dose-response curve: 209

## COc1cccc(/C=N/NC(N)=S)c1OS(=O)(=O)c1ccccc1
[1]
  area under cytotoxicity dose-response curve: 94.4
[2]
  area under intracellular growth-inhibition dose-response curve: 237

## Cc1nnc(SCC2=C(C(=O)O)N3C(=O)C(NC(=O)Cn4cnnn4)C3SC2)s1 (configuration not stated)
[1]
  area under cytotoxicity dose-response curve: 100
[2]
  area under intracellular growth-inhibition dose-response curve: 138

## COc1ccc(/C=N/NC(=O)c2ccncc2)c(OC)c1
[1]
  area under cytotoxicity dose-response curve: 28
[2]
  area under intracellular growth-inhibition dose-response curve: 227

## CN(C)c1nc(-c2ccccn2)nnc1-c1ccccc1
[1]
  area under cytotoxicity dose-response curve: 120
[2]
  area under intracellular growth-inhibition dose-response curve: 149

## O=C(/C=C\c1cccs1)N1CCN(Cc2ccc3c(c2)OCO3)CC1
[1]
  area under cytotoxicity dose-response curve: 135
[2]
  area under intracellular growth-inhibition dose-response curve: 218

## COc1cc(/C=N/NC(=O)c2ccncc2)ccc1Oc1ccc([N+](=O)[O-])cn1
[1]
  area under cytotoxicity dose-response curve: 71.3
[2]
  area under intracellular growth-inhibition dose-response curve: 194

## CC1CCc2c(N3CCC(O)CC3)c(F)cc3c(=O)c(C(=O)O)cn1c23 (configuration not stated)
[1]
  area under cytotoxicity dose-response curve: 67
[2]
  area under intracellular growth-inhibition dose-response curve: 162

## CC1CC(C)CN(C(=O)c2ccc(CNc3c(N4CCCC4)c(=O)c3=O)cc2)C1 (configuration not stated)
[1]
  area under cytotoxicity dose-response curve: 166
[2]
  area under intracellular growth-inhibition dose-response curve: 179

## CCCOc1ccccc1OCC(=O)N1CCN(S(=O)(=O)c2ccc(Cl)cc2)CC1
[1]
  area under cytotoxicity dose-response curve: 126
[2]
  area under intracellular growth-inhibition dose-response curve: 48.8

## N#Cc1ccc(NCC(=O)N2CCN(S(=O)(=O)c3ccccc3)CC2)cc1
[1]
  area under cytotoxicity dose-response curve: < 0
[2]
  area under intracellular growth-inhibition dose-response curve: 56.7

## O=C(NCc1ccco1)c1cc2c(s1)CCCCC2
[1]
  area under cytotoxicity dose-response curve: 42.6
[2]
  area under intracellular growth-inhibition dose-response curve: 255

## CCOc1ccc(CCNC(=O)c2ccc3c(=O)[nH]c4c(C(=O)NC(C)C)sc(=S)n4c3c2)cc1
[1]
  area under cytotoxicity dose-response curve: 10.1
[2]
  area under intracellular growth-inhibition dose-response curve: 225

## CC(C)[C@H](CN1CCC[C@H]1CN1C(N)=NC[C@@H]1Cc1ccccc1)N1C[C@@H](Cc2ccccc2)N(CCc2ccc(Cl)c(Cl)c2)C1=N
[1]
  area under cytotoxicity dose-response curve: 52.7
[2]
  area under intracellular growth-inhibition dose-response curve: 211

## [O-][n+]1onc2c3cc(-c4ccccc4)[nH]c3ccc21
[1]
  area under cytotoxicity dose-response curve: 40.6
[2]
  area under intracellular growth-inhibition dose-response curve: 74.3

## Cc1cc(Br)cnc1NC(=S)Nc1ccc(F)cc1F
[1]
  area under cytotoxicity dose-response curve: 33.7
[2]
  area under intracellular growth-inhibition dose-response curve: 247

## CC[N+](C)(CC)CCCCOc1ccc2c(c1)C(=O)c1cc(OCCCC[N+](C)(CC)CC)ccc1-2.[I-]
[1]
  area under cytotoxicity dose-response curve: 51.3
[2]
  area under intracellular growth-inhibition dose-response curve: 175

## COC(=O)C1C(O)C(C)C(O)C(C)/C=C\C=C(/C)C(=O)Nc2c(C)c(OC(C)=O)c3c(c2O)C(=O)C(C)=C2OCOC(=C23)/C(C)=C/C(C)(O)C(O)C(C)C1O (configuration not stated)
[1]
  area under cytotoxicity dose-response curve: 11.5
[2]
  area under intracellular growth-inhibition dose-response curve: 216

## CCOc1ccc(Br)cc1/C=N/NC(=O)c1ccncc1
[1]
  area under cytotoxicity dose-response curve: < 0
[2]
  area under intracellular growth-inhibition dose-response curve: 268

## O=C(N/N=C/c1c(F)c(F)c(F)c(F)c1F)c1ccc(Cn2cc(Br)cn2)o1
[1]
  area under cytotoxicity dose-response curve: < 0
[2]
  area under intracellular growth-inhibition dose-response curve: 154

## COc1cc(-c2cc(C(=O)Nc3ccncc3)c3ccccc3n2)cc(OC)c1OC
[1]
  area under cytotoxicity dose-response curve: 0.318
[2]
  area under intracellular growth-inhibition dose-response curve: 32.8

## NC(=S)N/N=C/c1ccc(Br)o1
[1]
  area under cytotoxicity dose-response curve: 3.81
[2]
  area under intracellular growth-inhibition dose-response curve: 246

## COc1c(N2CCN(C(=S)NCc3ccccc3)C(C)C2)c(F)cc2c(=O)c(C(=O)O)cn(C3CC3)c12 (configuration not stated)
[1]
  area under cytotoxicity dose-response curve: < 0
[2]
  area under intracellular growth-inhibition dose-response curve: 165

## S=C(Nc1ccccc1)Nc1ccc(OCc2ccccc2)cc1
[1]
  area under cytotoxicity dose-response curve: < 0
[2]
  area under intracellular growth-inhibition dose-response curve: 272

## O=C(NN=Cc1ccc2c(c1)OCO2)c1ccncc1
[1]
  area under cytotoxicity dose-response curve: 65.5
[2]
  area under intracellular growth-inhibition dose-response curve: 238

## CNC(=S)Nc1ccc(OCc2ccccc2)cc1
[1]
  area under cytotoxicity dose-response curve: 75.3
[2]
  area under intracellular growth-inhibition dose-response curve: 242

## O=C(Nc1ccc(S(=O)(=O)Nc2nccs2)cc1)C(F)(F)F
[1]
  area under cytotoxicity dose-response curve: 30
[2]
  area under intracellular growth-inhibition dose-response curve: 159

## COc1ccc(/C=N/Nc2nc(-c3ccc(C)cc3)c(NC(C)=O)s2)cc1
[1]
  area under cytotoxicity dose-response curve: < 0
[2]
  area under intracellular growth-inhibition dose-response curve: 272

## COc1cc2c(cc1OC)CN(C(=O)c1ccc([N+](=O)[O-])o1)CC2
[1]
  area under cytotoxicity dose-response curve: 37
[2]
  area under intracellular growth-inhibition dose-response curve: 101

## O=C(OCC(=O)C12CC3CC(CC(C3)C1)C2)c1ccc(CO)cc1
[1]
  area under cytotoxicity dose-response curve: < 0
[2]
  area under intracellular growth-inhibition dose-response curve: 124

## CC(C)(O)C(=O)Nc1ccc([N+](=O)[O-])c(C(F)(F)F)c1
[1]
  area under cytotoxicity dose-response curve: 82.8
[2]
  area under intracellular growth-inhibition dose-response curve: 35.7

## O=C(NC1CCCCCCC1)c1ccco1
[1]
  area under cytotoxicity dose-response curve: 3.98
[2]
  area under intracellular growth-inhibition dose-response curve: 234

## CS(=O)(=O)Nc1ccccc1C(=O)OCC(=O)N1CCC(c2ccccc2)=N1
[1]
  area under cytotoxicity dose-response curve: < 0
[2]
  area under intracellular growth-inhibition dose-response curve: 115

## CC(C)Cn1c([N+](=O)[O-])nc2c1c(=O)[nH]c(=O)n2C
[1]
  area under cytotoxicity dose-response curve: 40.1
[2]
  area under intracellular growth-inhibition dose-response curve: 5.16

## O=C(NC(CO)C(O)c1ccc([N+](=O)[O-])cc1)C(Cl)Cl (configuration not stated)
[1]
  area under cytotoxicity dose-response curve: 21.4
[2]
  area under intracellular growth-inhibition dose-response curve: 113

## O=C(CCC1CCCC1)NCc1cccs1
[1]
  area under cytotoxicity dose-response curve: 42.7
[2]
  area under intracellular growth-inhibition dose-response curve: 198

## COc1cccc(CNC(=O)CN2C(=O)NC(Cc3ccccc3)(c3ccccc3)C2=O)c1 (configuration not stated)
[1]
  area under cytotoxicity dose-response curve: 1.94
[2]
  area under intracellular growth-inhibition dose-response curve: 89.4

## CNC(=S)N/C=N/OCc1c(Cl)cccc1Cl
[1]
  area under cytotoxicity dose-response curve: 86.9
[2]
  area under intracellular growth-inhibition dose-response curve: 83.8

## Cc1c2c(nc3ccccc13)CCC(C)C2.Cl (configuration not stated)
[1]
  area under cytotoxicity dose-response curve: < 0
[2]
  area under intracellular growth-inhibition dose-response curve: 199

## COc1ccc(S(=O)(=O)N2CCN(C(=O)C3CC(=O)N(c4ccccc4F)C3)CC2)cc1OC (configuration not stated)
[1]
  area under cytotoxicity dose-response curve: 27.9
[2]
  area under intracellular growth-inhibition dose-response curve: 104

## COc1ccc(C(=O)C(C)OC(=O)CNC(=O)c2ccco2)cc1 (configuration not stated)
[1]
  area under cytotoxicity dose-response curve: < 0
[2]
  area under intracellular growth-inhibition dose-response curve: 166

## S=C(NCc1ccc(Cl)cc1)NC12CC3CC(CC(C3)C1)C2
[1]
  area under cytotoxicity dose-response curve: < 0
[2]
  area under intracellular growth-inhibition dose-response curve: 157

## Cc1cc(C)c2cc(C(=O)Nc3ccc(C)c(F)c3)[nH]c2c1
[1]
  area under cytotoxicity dose-response curve: < 0
[2]
  area under intracellular growth-inhibition dose-response curve: 214

## Cc1cc(/C=N/NC(N)=S)c(C)n1-c1ccc(Cl)c(Cl)c1
[1]
  area under cytotoxicity dose-response curve: < 0
[2]
  area under intracellular growth-inhibition dose-response curve: 257

## Cc1cc(OCCCCn2ccnc2)cc(C)c1Cl.Cl
[1]
  area under cytotoxicity dose-response curve: 24
[2]
  area under intracellular growth-inhibition dose-response curve: 174

## CC(C)[C@@H]1CC[C@@H](C)C[C@H]1OC(=O)C[n+]1cc(-c2ccc(Cl)cc2)n2c1CCCCC2.[Cl-]
[1]
  area under cytotoxicity dose-response curve: 101
[2]
  area under intracellular growth-inhibition dose-response curve: 8.38

## C=CCNc1nc(C(=O)OCC(=O)NCc2cccc(Cl)c2)cs1
[1]
  area under cytotoxicity dose-response curve: 96
[2]
  area under intracellular growth-inhibition dose-response curve: < 0

## Cc1cccc(OCC(=O)NCc2ccccc2)c1
[1]
  area under cytotoxicity dose-response curve: < 0
[2]
  area under intracellular growth-inhibition dose-response curve: 210

## Cc1ccccc1N1CCN(Cc2ccc([N+](=O)[O-])o2)CC1
[1]
  area under cytotoxicity dose-response curve: < 0
[2]
  area under intracellular growth-inhibition dose-response curve: 263

## CN(C)c1ccc(S(=O)(=O)N2CCCCC2)cc1NC(=O)CCNC(=O)c1ccccc1Cl
[1]
  area under cytotoxicity dose-response curve: < 0
[2]
  area under intracellular growth-inhibition dose-response curve: 67.5

## FC(F)Oc1ccc(NC(=S)Nc2ccc3c[nH]nc3c2)cc1
[1]
  area under cytotoxicity dose-response curve: < 0
[2]
  area under intracellular growth-inhibition dose-response curve: 219

## CCn1nc(C(=O)Nc2cccc(S(=O)(=O)N3CCCC3)c2)c2ccccc2c1=O
[1]
  area under cytotoxicity dose-response curve: 101
[2]
  area under intracellular growth-inhibition dose-response curve: 55.2

## CCCN=C1C(=O)C2=C(C(O)=C1C)N1CC3NC3[C@@]1(OC)C2COC(N)=O (some centres not stated)
[1]
  area under cytotoxicity dose-response curve: 121
[2]
  area under intracellular growth-inhibition dose-response curve: 166

## COc1c(/C=N/NC(N)=S)c(C)nn1-c1ccccc1
[1]
  area under cytotoxicity dose-response curve: 32.6
[2]
  area under intracellular growth-inhibition dose-response curve: 194

## CCc1ccc([C@@H]2CC=C(C(=O)O)[C@H](c3ccc(C(C)(C)C)cc3)N2S(=O)(=O)c2ccc(C)cc2)cc1
[1]
  area under cytotoxicity dose-response curve: 78.6
[2]
  area under intracellular growth-inhibition dose-response curve: 84.8

## O=C(NC1CCCC1)c1ccc(Br)s1
[1]
  area under cytotoxicity dose-response curve: 54.8
[2]
  area under intracellular growth-inhibition dose-response curve: 220

## O=Cc1c(Nc2cccc(C(F)(F)F)c2)nc2ccccn2c1=O
[1]
  area under cytotoxicity dose-response curve: < 0
[2]
  area under intracellular growth-inhibition dose-response curve: 234

## O=C(NC1CCCCC1)c1ccc2snnc2c1
[1]
  area under cytotoxicity dose-response curve: < 0
[2]
  area under intracellular growth-inhibition dose-response curve: 156
